Activity calls are given as the source filed them.
Key:
Beta-galactosidase = Beta-galactosidase (Escherichia coli, UniProt Q8VNN2); assay: Dose response counterscreen for EBI2 assay utilizing the enzyme, b-galactosidase.; type: functional
[1] = target: T1, Heat shock factor protein 1 (Mus musculus, UniProt P38532); assay: inhibition of MG132-induced HSE-luciferase signal, confirmation, cell-based, NIH3T3, luminescence, dose retest (AID 2382); type: functional;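 further: NIH3T3 fibroblasts with HSF1-driven luciferase reporter stressed by proteasome inhibitor MG132; luminescence from HSF1-driven luciferase expression after 8 hours of MG132 stress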
T1 sequence (P38532 whole entry): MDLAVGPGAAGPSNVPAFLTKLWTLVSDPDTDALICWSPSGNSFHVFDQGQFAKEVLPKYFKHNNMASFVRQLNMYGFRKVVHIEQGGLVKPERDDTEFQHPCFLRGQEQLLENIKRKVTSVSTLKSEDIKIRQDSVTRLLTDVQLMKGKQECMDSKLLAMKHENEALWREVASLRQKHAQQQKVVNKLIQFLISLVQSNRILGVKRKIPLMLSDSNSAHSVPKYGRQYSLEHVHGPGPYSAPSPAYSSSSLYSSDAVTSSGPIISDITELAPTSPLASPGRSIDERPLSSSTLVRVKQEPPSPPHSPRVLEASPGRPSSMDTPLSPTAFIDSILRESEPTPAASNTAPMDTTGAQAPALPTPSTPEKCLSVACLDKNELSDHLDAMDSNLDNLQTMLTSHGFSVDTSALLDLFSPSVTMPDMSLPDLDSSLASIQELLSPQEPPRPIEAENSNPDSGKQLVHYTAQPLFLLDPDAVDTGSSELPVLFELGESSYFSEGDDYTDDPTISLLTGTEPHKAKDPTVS

[2] = target: T2, Methionyl-tRNA synthetase, putative (Trypanosoma brucei brucei, UniProt Q38C91); type: functional, Trypanosoma brucei brucei strain 927/4 GUTat10.1
T2 sequence (Q38C91 whole entry): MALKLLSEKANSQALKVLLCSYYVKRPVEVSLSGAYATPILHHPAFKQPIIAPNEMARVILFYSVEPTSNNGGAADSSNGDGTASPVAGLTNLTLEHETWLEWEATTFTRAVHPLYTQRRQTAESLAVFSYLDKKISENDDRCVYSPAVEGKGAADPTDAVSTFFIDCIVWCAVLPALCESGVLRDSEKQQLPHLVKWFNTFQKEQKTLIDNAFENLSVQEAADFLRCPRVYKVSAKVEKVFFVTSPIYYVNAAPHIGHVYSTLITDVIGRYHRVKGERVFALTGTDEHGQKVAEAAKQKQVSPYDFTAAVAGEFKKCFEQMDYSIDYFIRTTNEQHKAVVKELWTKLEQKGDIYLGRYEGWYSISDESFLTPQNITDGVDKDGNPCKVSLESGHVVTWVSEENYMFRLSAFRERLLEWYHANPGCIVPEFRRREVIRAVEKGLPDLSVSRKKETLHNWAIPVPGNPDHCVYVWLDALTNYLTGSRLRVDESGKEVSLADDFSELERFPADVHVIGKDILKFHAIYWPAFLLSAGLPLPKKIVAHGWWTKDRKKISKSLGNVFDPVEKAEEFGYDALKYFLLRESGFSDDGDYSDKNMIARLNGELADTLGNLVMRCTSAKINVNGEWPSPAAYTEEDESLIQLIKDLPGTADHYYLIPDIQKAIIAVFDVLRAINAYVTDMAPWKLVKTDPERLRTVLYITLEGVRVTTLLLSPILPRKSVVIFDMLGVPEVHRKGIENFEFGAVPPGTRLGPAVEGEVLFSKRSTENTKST

[3] = target: T2, Methionyl-tRNA synthetase, putative; type: functional, Trypanosoma brucei brucei strain 927/4 GUTat10.1; remark: listed apart in the source
[4] = target: Long-chain-fatty-acid--AMP ligase FadD28 (Mycobacterium tuberculosis, UniProt P9WQ59); assay: Fluorescence polarization aasay to screen for inhibitors that compete for the binding of FadD28 to a bisubstrate Measured in Biochemical System Using Plate Reader - 2147-01_Inhibitor_Dose_CherryPick_Activity.; type: functional, Mycobacterium tuberculosis H37Rv
Sequence of Long-chain-fatty-acid--AMP ligase FadD28 (P9WQ59 whole entry): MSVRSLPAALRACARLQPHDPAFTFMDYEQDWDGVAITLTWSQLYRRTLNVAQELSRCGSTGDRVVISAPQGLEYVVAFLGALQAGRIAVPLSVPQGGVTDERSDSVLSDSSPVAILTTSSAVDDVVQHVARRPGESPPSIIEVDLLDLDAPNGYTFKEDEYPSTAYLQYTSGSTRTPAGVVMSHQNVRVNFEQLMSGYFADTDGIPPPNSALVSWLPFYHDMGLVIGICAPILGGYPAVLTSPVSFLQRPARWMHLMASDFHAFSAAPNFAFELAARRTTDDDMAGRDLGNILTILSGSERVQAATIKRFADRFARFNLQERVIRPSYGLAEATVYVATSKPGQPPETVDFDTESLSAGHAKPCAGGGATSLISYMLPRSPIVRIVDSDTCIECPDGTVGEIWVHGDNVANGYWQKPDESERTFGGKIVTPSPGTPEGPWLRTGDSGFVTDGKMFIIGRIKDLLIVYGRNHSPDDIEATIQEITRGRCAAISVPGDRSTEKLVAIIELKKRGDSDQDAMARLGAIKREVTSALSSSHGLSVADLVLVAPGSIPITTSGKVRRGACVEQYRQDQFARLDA

Aminopeptidase N = target: T3, Aminopeptidase N (Plasmodium falciparum FcB1/Columbia, UniProt O96935); assay: P. falciparum M1AAP inhibitors, biochemical, fluorogenic H-Leu-NHMec substrate, 1536-well (AID 1445); set-up: species or system Plasmodium falciparum 3D7, 3D7
T3 sequence (O96935 whole entry): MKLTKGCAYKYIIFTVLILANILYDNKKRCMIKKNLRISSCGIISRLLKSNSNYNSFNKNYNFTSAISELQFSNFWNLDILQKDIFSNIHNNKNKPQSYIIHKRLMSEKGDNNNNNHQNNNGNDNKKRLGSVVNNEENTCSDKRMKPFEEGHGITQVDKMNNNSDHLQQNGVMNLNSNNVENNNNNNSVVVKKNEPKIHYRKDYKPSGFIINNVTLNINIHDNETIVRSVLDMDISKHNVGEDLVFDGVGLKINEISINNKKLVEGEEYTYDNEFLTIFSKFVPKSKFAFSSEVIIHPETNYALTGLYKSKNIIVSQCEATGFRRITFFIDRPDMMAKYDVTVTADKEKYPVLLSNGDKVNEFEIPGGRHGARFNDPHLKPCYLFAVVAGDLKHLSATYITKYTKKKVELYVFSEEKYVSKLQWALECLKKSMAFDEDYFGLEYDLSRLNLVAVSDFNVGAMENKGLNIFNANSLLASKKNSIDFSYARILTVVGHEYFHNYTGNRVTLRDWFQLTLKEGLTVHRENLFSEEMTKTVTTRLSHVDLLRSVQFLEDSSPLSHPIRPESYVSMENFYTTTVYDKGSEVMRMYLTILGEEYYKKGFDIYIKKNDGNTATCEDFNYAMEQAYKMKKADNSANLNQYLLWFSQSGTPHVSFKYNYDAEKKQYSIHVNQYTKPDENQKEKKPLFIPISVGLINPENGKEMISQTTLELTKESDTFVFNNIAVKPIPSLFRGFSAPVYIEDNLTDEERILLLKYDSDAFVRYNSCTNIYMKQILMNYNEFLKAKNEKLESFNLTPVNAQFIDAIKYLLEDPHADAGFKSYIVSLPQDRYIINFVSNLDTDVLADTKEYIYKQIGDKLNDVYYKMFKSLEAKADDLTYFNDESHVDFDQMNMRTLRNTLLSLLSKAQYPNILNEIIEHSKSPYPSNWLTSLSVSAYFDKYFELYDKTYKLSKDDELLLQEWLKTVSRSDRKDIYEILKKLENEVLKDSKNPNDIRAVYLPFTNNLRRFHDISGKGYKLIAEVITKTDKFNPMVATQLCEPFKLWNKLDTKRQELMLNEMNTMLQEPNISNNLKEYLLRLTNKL

Nonstructural protein 1 = Nonstructural protein 1 (Influenza A virus, UniProt Q194T2); type: functional, Influenza A virus (A/California/07/2009(H1N1))
Sequence of Nonstructural protein 1 (Q194T2 whole entry): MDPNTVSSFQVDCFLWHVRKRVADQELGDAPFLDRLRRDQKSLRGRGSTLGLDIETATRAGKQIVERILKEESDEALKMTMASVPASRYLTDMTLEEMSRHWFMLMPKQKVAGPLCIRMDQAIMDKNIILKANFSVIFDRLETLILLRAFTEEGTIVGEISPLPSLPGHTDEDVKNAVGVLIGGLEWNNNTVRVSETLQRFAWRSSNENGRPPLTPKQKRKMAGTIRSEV

[5] = human group III sPLA2 inhibitors, dose response, biochemical, QFRET, IC50 (AID 743457);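 further: green fluorescence rise as the enzyme cleaves BODIPY PC-A2 in liposomes; potency for inhibition of the enzyme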
[6] = target: Matrix metalloproteinase-14 (Homo sapiens, UniProt P50281); assay: Dose Response confirmation of uHTS hits for a small molecule inhibitors of MT1-MMP activation in a fluorescence assay set 1.; type: functional
[7] = HEK293T cytotoxicity, dose response, cytotoxicity control for miR-122 modulator project, cell-based, inhibitor set, cherry-pick, set 2 (AID 720697); type: functional
[8] = target: T4, Small ubiquitin-related modifier 1 (Homo sapiens, UniProt P63165); assay: inhibitors of SUMO1 peptide binding, dose response, biochemical, fluorescence polarization, uHTS hits (AID 624382); type: functional; conditions: read-out: IC50_Mean
T4 sequence (P63165 whole entry): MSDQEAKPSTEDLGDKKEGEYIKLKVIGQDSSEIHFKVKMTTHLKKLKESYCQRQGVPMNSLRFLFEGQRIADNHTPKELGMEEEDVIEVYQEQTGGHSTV

[9] = target: T4, Small ubiquitin-related modifier 1; assay: inhibitors of SUMO1 partner interactions, dose response, biochemical, FRET (AID 624383); type: functional; conditions: read-out: IC50_Mean

Sequence of Beta-galactosidase (Q8VNN2 whole entry): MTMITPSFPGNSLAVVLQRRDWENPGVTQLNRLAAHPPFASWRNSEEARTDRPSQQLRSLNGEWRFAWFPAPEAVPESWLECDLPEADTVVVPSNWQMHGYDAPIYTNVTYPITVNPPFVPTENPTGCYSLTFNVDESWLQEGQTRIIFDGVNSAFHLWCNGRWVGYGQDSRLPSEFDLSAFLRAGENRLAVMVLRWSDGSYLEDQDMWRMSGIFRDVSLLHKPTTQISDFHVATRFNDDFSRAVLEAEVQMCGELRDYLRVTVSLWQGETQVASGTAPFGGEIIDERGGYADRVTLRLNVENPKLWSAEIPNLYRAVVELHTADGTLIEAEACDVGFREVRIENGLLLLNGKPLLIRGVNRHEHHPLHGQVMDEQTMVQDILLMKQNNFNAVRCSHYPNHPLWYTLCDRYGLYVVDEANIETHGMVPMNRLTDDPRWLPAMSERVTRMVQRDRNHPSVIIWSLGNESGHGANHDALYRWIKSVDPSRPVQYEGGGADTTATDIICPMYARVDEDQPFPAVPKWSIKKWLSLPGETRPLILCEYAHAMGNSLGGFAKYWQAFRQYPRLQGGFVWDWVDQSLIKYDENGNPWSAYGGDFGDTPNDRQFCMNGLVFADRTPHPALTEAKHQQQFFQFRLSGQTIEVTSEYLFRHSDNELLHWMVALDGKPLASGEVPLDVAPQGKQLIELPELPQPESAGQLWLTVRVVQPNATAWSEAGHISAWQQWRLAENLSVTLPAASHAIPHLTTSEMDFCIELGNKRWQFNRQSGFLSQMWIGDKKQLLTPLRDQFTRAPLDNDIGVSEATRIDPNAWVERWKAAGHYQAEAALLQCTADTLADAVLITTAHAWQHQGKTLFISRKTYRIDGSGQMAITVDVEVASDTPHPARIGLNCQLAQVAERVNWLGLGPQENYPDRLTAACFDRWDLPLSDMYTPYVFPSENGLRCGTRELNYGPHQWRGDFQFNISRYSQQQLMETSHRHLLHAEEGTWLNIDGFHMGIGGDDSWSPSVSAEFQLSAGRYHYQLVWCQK

Structure (SMILES): CCOC(=O)C1CCN(C(=O)c2cc3c(s2)-c2ccccc2OC3)CC1
- IC50 (Beta-galactosidase): > 80 µM (inactive)

Structure (SMILES): COc1ccc(NC(=S)N2CCC(c3nc4ccc(Cl)cc4[nH]3)CC2)c(OC)c1
- EC50 [1]: > 195 µM (not active)
- IC50 [2]: 53.5 µM (inactive)
- IC50 [3]: 26.1 µM (inactive)

Structure (SMILES): CCOc1ccc(N2C(=O)/C(=C\NNc3nnc(C)c(O)n3)c3ccccc3C2=O)cc1
- EC50 [1]: > 195 µM (not active)
- AC50 [4]: 64.9 µM (active)
- IC50 (Aminopeptidase N): 20.9 µM (active)
- IC50 (Nonstructural protein 1): 5.02 µM (active)

Structure (SMILES): CC1(C)CCCN(C(=O)c2ccc3c(c2NCCO)C(=O)c2ccccc2C3=O)C1
- IC50 [5]: > 122 µM (inactive)
- IC50 [6]: 17.2 µM (active)
- IC50 (Nonstructural protein 1): 15.2 µM (active)

Structure (SMILES): CCN(CC)CCOc1cccc(C(C)C)c1
- AC50 [7]: 6.91 µM (active)

Structure (SMILES): CCCC(C)C(=O)Nc1nc(C)c(-c2csc(Nc3cc(Cl)ccc3C)n2)s1 (centres undefined)
- IC50 [8]: > 66.6 µM (inactive)
- IC50 [9]: 10.2 µM (active)
